From patent US20250230193A1, “CYCLIC COMPOUND HAVING SELECTIVE KRAS INHIBITORY EFFECT ON HRAS AND NRAS” (CHUGAI SEIYAKU KABUSHIKI KAISHA, priority 2022, published 2025)

Assays:
[1] = molecular target: GDP-bound HRAS wild-type protein (Homo sapiens, UniProt P01112); assay: Binding to HRAS by surface plasmon resonance (SPR), Single Cycle Kinetics; details: SPR; KD ratio class
[2] = molecular target: GDP-bound NRAS wild-type protein (Homo sapiens, UniProt P01111); assay: Binding to NRAS by surface plasmon resonance (SPR), Single Cycle Kinetics; details: SPR; KD ratio class
GDP-bound NRAS wild-type protein, sequence (P01111 whole entry): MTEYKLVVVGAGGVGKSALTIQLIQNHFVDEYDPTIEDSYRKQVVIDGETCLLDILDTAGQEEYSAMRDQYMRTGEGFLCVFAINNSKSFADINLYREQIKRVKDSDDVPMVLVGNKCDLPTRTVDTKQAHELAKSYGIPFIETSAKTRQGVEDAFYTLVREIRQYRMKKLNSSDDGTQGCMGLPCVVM

[3] = system: human lung cancer strain NCI-H441; assay: cells; details: NCI-H441, 96 h, read-out: NCI-H441 IC50 (nM)

GDP-bound HRAS wild-type protein, sequence (P01112 whole entry): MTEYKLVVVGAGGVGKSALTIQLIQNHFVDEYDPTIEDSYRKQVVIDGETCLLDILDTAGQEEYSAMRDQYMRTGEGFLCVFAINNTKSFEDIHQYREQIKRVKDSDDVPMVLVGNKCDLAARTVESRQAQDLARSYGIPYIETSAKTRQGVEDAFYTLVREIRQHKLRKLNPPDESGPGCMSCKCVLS

Row | SMILES | HRAS/KRAS (ratio of KD value for GDP-bound HRAS wild-type protein to KD value for KRAS) [1] | NRAS/KRAS (ratio of KD value for GDP-bound NRAS wild-type protein to KD value for KRAS) [2] | IC50 [3] [nM]
1 | CCO[C@@H]1C[C@H]2C(=O)NC3(CCC3)C(=O)N(C)[C@@H](C(CC)CC)C(=O)N(C)[C@H](C(=O)N3CCOCC3)CC(=O)N(C)[C@@H](CC(C)C)C(=O)N[C@@H]([C@@H](C)CC)C(=O)N(C)CC(=O)N(C)[C@H]3C/C=C\CCN(C3=O)[C@@H](Cc3ccc(C(F)(F)F)cc3)C(=O)N(C)CC(=O)N[C@@H](CCc3cc(F)c(C(F)(F)F)c(F)c3)C(=O)N2C1 [PP1287] | A (a compound having 10 or more and less than 20 is denoted as A) | AA (a compound having 20 or more is denoted as AA) | 49.7
2 | CCC[C@H]1C(=O)N[C@@H]([C@@H](C)CC)C(=O)N(C)CC(=O)N(C)[C@H]2C/C=C\CCN(C2=O)[C@@H](Cc2ccc(C(F)(F)F)cc2)C(=O)N(C)CC(=O)N[C@@H](CCc2cc(F)c(C(F)(F)F)c(F)c2)C(=O)N2C[C@H](OCC)C[C@H]2C(=O)NC2(CCC2)C(=O)N(C)[C@@H](C2CCCC2)C(=O)N(C)[C@H](C(=O)N2CCOCC2)CC(=O)N1C [PP1288] | A (a compound having 10 or more and less than 20 is denoted as A) | AA (a compound having 20 or more is denoted as AA) | 22.2
3 | CCO[C@@H]1C[C@H]2C(=O)NC3(CCC3)C(=O)N(C)[C@@H](C3CCCC3)C(=O)N(C)[C@H](C(=O)N3CCCCC3)CC(=O)N(C)[C@@H](CC)C(=O)N[C@@H]([C@@H](C)CC)C(=O)N(C)CC(=O)N(C)[C@H]3C/C=C\CCN(C3=O)[C@@H](Cc3ccc(C(F)(F)F)cc3)C(=O)N(C)CC(=O)N[C@@H](CCc3cc(F)c(C(F)(F)F)c(F)c3)C(=O)N2C1 [PP1289] | A (a compound having 10 or more and less than 20 is denoted as A) | AA (a compound having 20 or more is denoted as AA) | 34.7
4 | CCO[C@@H]1C[C@H]2C(=O)NC3(CCC3)C(=O)N(C)[C@@H](C3CCCC3)C(=O)N(C)[C@H](C(=O)N3CCCCC3)CC(=O)N(C)[C@@H](CC(C)C)C(=O)N[C@@H]([C@@H](C)CC)C(=O)N(C)CC(=O)N(C)[C@H]3C/C=C\CCN(C3=O)[C@@H](Cc3ccc(C(F)(F)F)cc3)C(=O)N(C)CC(=O)N[C@@H](CCc3cc(F)c(C(F)(F)F)c(F)c3)C(=O)N2C1 [PP1290] | A (a compound having 10 or more and less than 20 is denoted as A) | AA (a compound having 20 or more is denoted as AA) | 15.4
5 | CCO[C@@H]1C[C@H]2C(=O)NC3(CCC3)C(=O)N(C)[C@@H](C3CCCC3)C(=O)N(C)[C@H](C(=O)N3CCCCC3)CC(=O)N(C)[C@@H](CC3CC3)C(=O)N[C@@H]([C@@H](C)CC)C(=O)N(C)CC(=O)N(C)[C@H]3C/C=C\CCN(C3=O)[C@@H](Cc3ccc(C(F)(F)F)cc3)C(=O)N(C)CC(=O)N[C@@H](CCc3cc(F)c(C(F)(F)F)c(F)c3)C(=O)N2C1 [PP1291] | A (a compound having 10 or more and less than 20 is denoted as A) | A (a compound having 10 or more and less than 20 is denoted as A) | 16.7
6 | CCO[C@@H]1C[C@H]2C(=O)NC3(CCC3)C(=O)N(C)[C@@H](C3CCCC3)C(=O)N(C)[C@H](C(=O)N3CCCCC3)CC(=O)N(C)[C@@H](C)C(=O)N[C@@H]([C@@H](C)CC)C(=O)N(C)CC(=O)N(C)[C@H]3C/C=C\CCN(C3=O)[C@@H](Cc3ccc(C(F)(F)F)cc3)C(=O)N(C)CC(=O)N[C@@H](CCc3cc(F)c(C(F)(F)F)c(F)c3)C(=O)N2C1 [PP1292] | A (a compound having 10 or more and less than 20 is denoted as A) | A (a compound having 10 or more and less than 20 is denoted as A) | 24.6
7 | CCC[C@H]1C(=O)N[C@@H]([C@@H](C)CC)C(=O)N(C)CC(=O)N(C)[C@H]2C/C=C\CCN(C2=O)[C@@H](Cc2ccc(C(F)(F)F)cc2)C(=O)N(C)CC(=O)N[C@@H](CCc2cc(F)c(C(F)(F)F)c(F)c2)C(=O)N2C[C@H](OCC)C[C@H]2C(=O)NC2(CCC2)C(=O)N(C)[C@@H](C2CCCC2)C(=O)N(C)[C@H](C(=O)N2CCCCC2)CC(=O)N1C [PP1294] | A (a compound having 10 or more and less than 20 is denoted as A) | A (a compound having 10 or more and less than 20 is denoted as A) | 10
8 | CC[C@H](C)[C@@H]1NC(=O)[C@H](CC)N(C)C(=O)C[C@@H](C(=O)N(C)C)N(C)C(=O)[C@H](C2CCCC2)N(C)C(=O)C2(CCCC2)NC(=O)[C@@H]2CCCN2C(=O)[C@H](CCc2ccc(C(F)(F)F)c(Cl)c2)NC(=O)CN(C)C(=O)[C@H](Cc2ccc(C(F)(F)F)cc2)N2C[C@H](C)CC[C@@H](C2=O)N(C)C(=O)CN(C)C1=O [PP1336] | B (a compound having 3 or more and less than 10 is denoted as B) | B (a compound having 3 or more and less than 10 is denoted as B) | 10.8
9 | CC[C@H](C)[C@@H]1NC(=O)[C@H](CC)N(C)C(=O)C[C@@H](C(=O)N2CCOCC2)N(C)C(=O)[C@H](C2CCCC2)N(C)C(=O)C2(CCCC2)NC(=O)[C@@H]2CCCN2C(=O)[C@H](CCc2ccc(C(F)(F)F)c(Cl)c2)NC(=O)CN(C)C(=O)[C@H](Cc2ccc(C(F)(F)F)cc2)N2C[C@H](C)CC[C@@H](C2=O)N(C)C(=O)CN(C)C1=O [PP1337] | B (a compound having 3 or more and less than 10 is denoted as B) | B (a compound having 3 or more and less than 10 is denoted as B) | 29.8
10 | CC[C@H](C)[C@@H]1NC(=O)[C@H](CC)N(C)C(=O)C[C@@H](C(=O)N2CCOCC2)N(C)C(=O)[C@H](C2CCCC2)N(C)C(=O)C2(CCC2)NC(=O)[C@@H]2CCCN2C(=O)[C@H](CCc2ccc(C(F)(F)F)c(Cl)c2)NC(=O)CN(C)C(=O)[C@H](Cc2ccc(C(F)(F)F)cc2)N2C[C@H](C)CC[C@@H](C2=O)N(C)C(=O)CN(C)C1=O [PP1338] | B (a compound having 3 or more and less than 10 is denoted as B) | B (a compound having 3 or more and less than 10 is denoted as B) | 35
11 | C#CC[C@H]1C(=O)N[C@@H]([C@@H](C)CC)C(=O)N(C)CC(=O)N(C)[C@H]2CC[C@@H](C)CN(C2=O)[C@@H](Cc2ccc(C(F)(F)F)cc2)C(=O)N(C)CC(=O)N[C@@H](CCc2ccc(C(F)(F)F)c(Cl)c2)C(=O)N2CCC[C@H]2C(=O)NC2(CCCC2)C(=O)N(C)[C@@H](C2CCCC2)C(=O)N(C)[C@H](C(=O)N(C)C)CC(=O)N1C [PP1340] | B (a compound having 3 or more and less than 10 is denoted as B) | B (a compound having 3 or more and less than 10 is denoted as B) | 10.9
